Experimental data as given in ChEMBL document CHEMBL1201862, “PubChem BioAssay data set” (2004).
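Growth conditions: 96-well plates. Treatment: test compound, 48 hours, 5 concentrations. Analysis: linear interpolation between bracketing concentrations; unreached endpoints set to highest concentration. GI50 marks 50% less growth.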 Active and inactive are the calls of the source. No stated cut-off is given here; in the data, active = GI50 up to about 1.1 µM and inactive = higher.

Experiments:
Test in all cases: inhibition of tumour cell growth, NCI panel, 48 h
786-0 = test system: 786-0
OVCAR-4 = test system: OVCAR-4
HOP-92 = test system: HOP-92
UO-31 = test system: UO-31
OVCAR-3 = test system: OVCAR-3
SK-MEL-5 = test system: SK-MEL-5
NCI-H522 = test system: NCI-H522
EKVX = test system: EKVX
TK-10 = test system: TK-10
HCT-15 = test system: HCT-15
HOP-62 = test system: HOP-62
COLO 205 = test system: COLO 205
ACHN = test system: ACHN
NCI-H460 = test system: NCI-H460
LOX IMVI = test system: LOX IMVI
OVCAR-8 = test system: OVCAR-8
OVCAR-5 = test system: OVCAR-5
RXF 393 = test system: RXF 393
SK-MEL-2 = test system: SK-MEL-2
HCC 2998 = test system: HCC 2998

C=C(Br)CN(C)CC(=C)Br
GI50 (786-0): > 100 µM (inactive)
GI50 (OVCAR-4): > 100 µM (inactive)
GI50 (HOP-92): > 100 µM (inactive)
GI50 (UO-31): > 100 µM (inactive)
GI50 (OVCAR-3): > 100 µM (inactive)
GI50 (SK-MEL-5): > 100 µM (inactive)
GI50 (NCI-H522): > 100 µM (inactive)
GI50 (EKVX): > 100 µM (inactive)
GI50 (TK-10): 50.1 µM (inactive)
GI50 (HCT-15): > 100 µM
GI50 (HOP-62): > 100 µM (inactive)
GI50 (COLO 205): > 100 µM (inactive)
GI50 (ACHN): > 100 µM (inactive)
GI50 (NCI-H460): > 100 µM (inactive)
GI50 (LOX IMVI): > 100 µM (inactive)
GI50 (OVCAR-8): > 100 µM (inactive)
GI50 (OVCAR-5): > 100 µM (inactive)
GI50 (RXF 393): > 100 µM (inactive)
GI50 (SK-MEL-2): > 100 µM (inactive)

COc1ccc(C(c2ccc(C(C)C)cc(=O)c2O)c2c(O)cc3oc(-c4ccccc4)cc(=O)c3c2O)cc1 (configuration not stated)
GI50 (786-0): 3.57 µM (inactive)
GI50 (OVCAR-4): 7.53 µM (inactive)
GI50 (HCC 2998): 3.58 µM (inactive)
GI50 (HOP-92): < 0.01 µM (active)
GI50 (OVCAR-3): 5.86 µM (inactive)
GI50 (SK-MEL-5): 11.5 µM (inactive)
GI50 (EKVX): 12.6 µM (inactive)
GI50 (TK-10): 9.42 µM (inactive)
GI50 (HCT-15): 6.9 µM
GI50 (HOP-62): 2.07 µM (inactive)
GI50 (COLO 205): 9.79 µM (inactive)
GI50 (ACHN): 4.21 µM (inactive)
GI50 (NCI-H460): 3.37 µM (inactive)
GI50 (LOX IMVI): 14.6 µM (inactive)
GI50 (OVCAR-8): 6.9 µM (inactive)
GI50 (RXF 393): 3.71 µM (inactive)

O=C1OC(c2ccccc2Br)=N/C1=C/c1ccccc1
GI50 (OVCAR-4): 25.4 µM (inactive)
GI50 (HCC 2998): 19.1 µM (inactive)
GI50 (HOP-92): > 10 µM (inactive)
GI50 (UO-31): 45.9 µM (inactive)
GI50 (OVCAR-3): 14.1 µM (inactive)
GI50 (SK-MEL-5): 35.2 µM (inactive)
GI50 (NCI-H522): 26 µM (inactive)
GI50 (EKVX): > 100 µM (inactive)
GI50 (TK-10): 32.8 µM (inactive)
GI50 (HCT-15): 29.9 µM
GI50 (HOP-62): 21.5 µM (inactive)
GI50 (COLO 205): > 10 µM (inactive)
GI50 (ACHN): 27.5 µM (inactive)
GI50 (NCI-H460): 42.5 µM (inactive)
GI50 (LOX IMVI): 21.7 µM (inactive)
GI50 (OVCAR-8): 21.6 µM (inactive)
GI50 (OVCAR-5): 40.2 µM (inactive)
GI50 (SK-MEL-2): 18.8 µM (inactive)

CC1C2CC(C(C3C(=O)C4CC3C(C)(C)C4C)C2=O)C1(C)C (configuration not stated)
GI50 (786-0): > 100 µM (inactive)
GI50 (OVCAR-4): > 100 µM (inactive)
GI50 (HCC 2998): > 100 µM (inactive)
GI50 (HOP-92): > 100 µM (inactive)
GI50 (UO-31): > 100 µM (inactive)
GI50 (OVCAR-3): > 100 µM (inactive)
GI50 (SK-MEL-5): > 100 µM (inactive)
GI50 (NCI-H522): > 100 µM (inactive)
GI50 (EKVX): > 100 µM (inactive)
GI50 (TK-10): > 100 µM (inactive)
GI50 (HOP-62): > 100 µM (inactive)
GI50 (COLO 205): > 100 µM (inactive)
GI50 (ACHN): > 100 µM (inactive)
GI50 (NCI-H460): > 100 µM (inactive)
GI50 (OVCAR-8): > 100 µM (inactive)
GI50 (OVCAR-5): > 100 µM (inactive)
GI50 (RXF 393): > 100 µM (inactive)

CC1CCC(=O)C(C(O)CC2CC(=O)N(c3ccccc3)C(=O)C2)C1 (configuration not stated)
GI50 (786-0): > 100 µM (inactive)
GI50 (OVCAR-4): > 100 µM (inactive)
GI50 (HCC 2998): > 100 µM (inactive)
GI50 (HOP-92): > 100 µM (inactive)
GI50 (UO-31): > 100 µM (inactive)
GI50 (OVCAR-3): > 100 µM (inactive)
GI50 (NCI-H522): > 100 µM (inactive)
GI50 (EKVX): > 100 µM (inactive)
GI50 (TK-10): > 100 µM (inactive)
GI50 (HOP-62): > 100 µM (inactive)
GI50 (COLO 205): > 100 µM (inactive)
GI50 (ACHN): > 100 µM (inactive)
GI50 (NCI-H460): > 100 µM (inactive)
GI50 (LOX IMVI): > 100 µM (inactive)
GI50 (OVCAR-8): > 100 µM (inactive)
GI50 (OVCAR-5): > 100 µM (inactive)
GI50 (RXF 393): > 100 µM (inactive)

CC12CCC3C(CCC4=CC(O)CCC43C=O)C1(O)CCC2c1ccc(=O)oc1 (configuration not stated)
GI50 (OVCAR-4): 0.00723 µM (active)
GI50 (HCC 2998): 0.021 µM (active)
GI50 (HOP-92): 0.0164 µM (active)
GI50 (UO-31): 0.027 µM (active)
GI50 (OVCAR-3): 0.00368 µM (active)
GI50 (SK-MEL-5): 0.00622 µM (active)
GI50 (NCI-H522): 0.0015 µM (active)
GI50 (EKVX): 0.0124 µM (active)
GI50 (HCT-15): 0.0508 µM
GI50 (HOP-62): 0.05 µM (active)
GI50 (COLO 205): 0.0169 µM (active)
GI50 (NCI-H460): 0.00182 µM (active)
GI50 (LOX IMVI): 0.00748 µM (active)
GI50 (OVCAR-8): 0.00622 µM (active)
GI50 (OVCAR-5): 0.0693 µM (active)
GI50 (SK-MEL-2): 0.0116 µM (active)

NCCCCNCCCNC(=O)c1nc(-c2nc(CCN)sc2Cl)sc1Cl
GI50 (OVCAR-4): 29.9 µM (inactive)
GI50 (HCC 2998): > 100 µM (inactive)
GI50 (HOP-92): > 100 µM (inactive)
GI50 (UO-31): > 100 µM (inactive)
GI50 (OVCAR-3): > 100 µM (inactive)
GI50 (SK-MEL-5): > 100 µM (inactive)
GI50 (NCI-H522): 21 µM (inactive)
GI50 (EKVX): > 100 µM (inactive)
GI50 (TK-10): > 100 µM (inactive)
GI50 (HCT-15): > 100 µM
GI50 (HOP-62): 59.7 µM (inactive)
GI50 (COLO 205): > 100 µM (inactive)
GI50 (ACHN): > 100 µM (inactive)
GI50 (NCI-H460): 27.7 µM (inactive)
GI50 (OVCAR-8): > 100 µM (inactive)
GI50 (OVCAR-5): > 100 µM (inactive)
GI50 (RXF 393): 12.4 µM (inactive)

CSCCC(NC(=O)OCc1ccccc1)NC(=O)OCc1ccccc1
GI50 (OVCAR-4): > 100 µM (inactive)
GI50 (HCC 2998): > 100 µM (inactive)
GI50 (HOP-92): > 100 µM (inactive)
GI50 (UO-31): > 100 µM (inactive)
GI50 (OVCAR-3): > 100 µM (inactive)
GI50 (SK-MEL-5): > 100 µM (inactive)
GI50 (NCI-H522): > 100 µM (inactive)
GI50 (TK-10): > 100 µM (inactive)
GI50 (HCT-15): > 100 µM
GI50 (HOP-62): > 100 µM (inactive)
GI50 (COLO 205): > 100 µM (inactive)
GI50 (ACHN): > 100 µM (inactive)
GI50 (NCI-H460): > 100 µM (inactive)
GI50 (LOX IMVI): > 100 µM (inactive)
GI50 (OVCAR-8): > 100 µM (inactive)
GI50 (OVCAR-5): > 100 µM (inactive)
GI50 (SK-MEL-2): > 100 µM (inactive)
